Columns and labels:
[1] = biological target: T1, GPR17 (Homo sapiens, UniProt Q13304); assay: Calcium mobilization functional assay (GPR17 Ca2+ assay); assay type: cell-based; set-up: host or cells: Flp-In T-REx CHO; conditions: CHO hGPR17 cells, inhibition of 50 nM MDL29,951, Calcium 5 dye, FLIPR; read-out: Ca2+ assay pIC50 (converted)
Outline: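 Flp-In T-REx CHO cells stably expressing human GPR17, doxycycline-induced (1 μg/mL, 16-20 h), loaded 60 min with Calcium 5 dye. Inhibition by varying test-compound concentrations of the 50 nM MDL29,951 agonist response was read by fluorescence over time at room temperature. pIC50 came from 4-parameter logistic fitting.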

[2] = biological target: T1, GPR17; assay: cAMP accumulation functional assay (HTRF, Schild analysis); assay type: cell-based; set-up: host or cells: Flp-In T-REx CHO; conditions: CHO hGPR17 cells, Schild analysis vs MDL29,951, 5 μM forskolin, read-out: cAMP assay pA2 (converted)
Outline: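 CHO Flp-In T-REx cells with doxycycline-induced human GPR17 were preincubated 30 min at room temperature in HBSS-HEPES pH 7.4 with antagonist. cAMP was then measured by HTRF after 60 min. MDL29,951 pEC50 shifts gave dose ratios, and Schild analysis gave pA2.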

T1 sequence (Q13304 whole entry): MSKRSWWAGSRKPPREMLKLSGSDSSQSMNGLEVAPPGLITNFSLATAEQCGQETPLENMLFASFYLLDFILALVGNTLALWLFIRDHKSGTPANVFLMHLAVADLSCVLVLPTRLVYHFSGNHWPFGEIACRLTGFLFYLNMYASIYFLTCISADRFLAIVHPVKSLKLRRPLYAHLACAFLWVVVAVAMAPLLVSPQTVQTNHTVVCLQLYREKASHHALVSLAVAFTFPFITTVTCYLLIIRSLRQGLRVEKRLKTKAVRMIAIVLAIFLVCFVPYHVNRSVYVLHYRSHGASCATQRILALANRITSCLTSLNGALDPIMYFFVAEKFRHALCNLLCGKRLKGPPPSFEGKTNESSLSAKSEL

SMILES	IC50 [1] [nM]	Kb [2] [nM]
O=S(=O)(Nc1cc(F)c(F)cc1F)c1c[nH]c2nc(Cl)ccc12 [Compound I-223, 6-chloro-N-(2,4,5-trifluorophenyl)-1H-pyrrolo[2,3-b]pyridine-3-sulfonamide]	3.16 to 31.6	> 31.6
N#Cc1ccc(NS(=O)(=O)c2c[nH]c3cc(Cl)ccc23)cc1Cl [Compound I-181, 6-chloro-N-(3-chloro-4-cyanophenyl)-1H-indole-3-sulfonamide]	3.16 to 31.6	3.16 to 31.6
O=S(=O)(Nc1ccc(Cl)cc1F)c1c[nH]c2nc(Br)ccc12 [Compound I-278, 6-bromo-N-(4-chloro-2-fluorophenyl)-1H-pyrrolo[2,3-b]pyridine-3-sulfonamide]	3.16 to 31.6	< 3.16
CC1OC(=O)c2cc(NS(=O)(=O)c3c[nH]c4cc(Cl)ccc34)c(F)cc21 (centres unmarked) [Compound I-327, 6-chloro-N-(6-fluoro-1-methyl-3-oxo-1,3-dihydro-2-benzofuran-5-yl)-1H-indole-3-sulfonamide]	< 3.16	< 3.16
O=C1OCc2ccc(NS(=O)(=O)c3c[nH]c4nc(Br)ccc34)cc21 [Compound I-92, 6-bromo-N-(3-oxo-1,3-dihydro-2-benzofuran-5-yl)-1H-pyrrolo[2,3-b]pyridine-3-sulfonamide]	> 31.6	> 31.6
O=S(=O)(Nc1ccc2nsnc2c1)c1c[nH]c2cc(Br)ccc12 [Compound I-183, N-(2,1,3-benzothiadiazol-5-yl)-6-bromo-1H-indole-3-sulfonamide]	< 3.16	< 3.16
CCO/C=C/c1cc(F)c(NS(=O)(=O)c2c[nH]c3cc(Cl)ccc23)nc1F [Compound I-332, 6-chloro-N-{5-[(E)-2-ethoxyethenyl]-3,6-difluoropyridin-2-yl}-1H-indole-3-sulfonamide]	3.16 to 31.6	< 3.16
COc1ccc2c(S(=O)(=O)Nc3cc(F)c(Br)cc3F)c[nH]c2n1 [Compound I-272, N-(4-bromo-2,5-difluorophenyl)-6-methoxy-1H-pyrrolo[2,3-b]pyridine-3-sulfonamide]	3.16 to 31.6	< 3.16
O=S(=O)(Nc1cccc2nsnc12)c1c[nH]c2cc(Br)ccc12 [Compound I-110, N-(2,1,3-benzothiadiazol-4-yl)-6-bromo-1H-indole-3-sulfonamide]	< 3.16	< 3.16
O=C1OCc2cc(F)c(NS(=O)(=O)c3c[nH]c4cc(Cl)ccc34)cc21 [Compound I-243, 6-chloro-N-(6-fluoro-3-oxo-1,3-dihydro-2-benzofuran-5-yl)-1H-indole-3-sulfonamide]	3.16 to 31.6	3.16 to 31.6
N#Cc1ccc(NS(=O)(=O)c2c[nH]c3cc(F)ccc23)c(F)c1 [Compound I-113, N-(4-cyano-2-fluorophenyl)-6-fluoro-1H-indole-3-sulfonamide]	3.16 to 31.6	> 31.6
O=S(=O)(Nc1cc(F)c(Cl)cc1F)c1c[nH]c2nc(C(F)(F)F)ccc12 [Compound I-247, N-(4-chloro-2,5-difluorophenyl)-6-(trifluoromethyl)-1H-pyrrolo[2,3-b]pyridine-3-sulfonamide]	3.16 to 31.6	< 3.16
COc1c(Cl)ccc2c(S(=O)(=O)Nc3nc(F)c(Cl)cc3F)c[nH]c12 [Compound I-310, 6-chloro-N-(5-chloro-3,6-difluoropyridin-2-yl)-7-methoxy-1H-indole-3-sulfonamide]	< 3.16	< 3.16
N#Cc1ccc(NS(=O)(=O)c2c[nH]c3nc(Br)ccc23)cc1 [Compound I-80, 6-bromo-N-(4-cyanophenyl)-1H-pyrrolo[2,3-b]pyridine-3-sulfonamide]	< 3.16	3.16 to 31.6
O=S(=O)(Nc1cc(F)c(Br)cc1F)c1c[nH]c2c1ccc1cccnc12 [Compound I-305, N-(4-bromo-2,5-difluorophenyl)-1H-pyrrolo[3,2-h]quinoline-3-sulfonamide]	< 3.16	< 3.16
N#CCOc1cc(F)c(NS(=O)(=O)c2coc3cc(Cl)ccc23)cc1F [Compound I-342, 6-chloro-N-[4-(cyanomethoxy)-2,5-difluorophenyl]-1-benzofuran-3-sulfonamide]	3.16 to 31.6	3.16 to 31.6
N#Cc1ccc(NS(=O)(=O)c2c[nH]c3cc(OCc4ccccc4)ccc23)c(F)c1 [Compound I-154, 6-(benzyloxy)-N-(4-cyano-2-fluorophenyl)-1H-indole-3-sulfonamide]	< 3.16	3.16 to 31.6
COc1nc(NS(=O)(=O)c2c[nH]c3cc([N+](=O)[O-])ccc23)c(F)cc1CC#N [Compound I-351, N-[5-(cyanomethyl)-3-fluoro-6-methoxypyridin-2-yl]-6-nitro-1H-indole-3-sulfonamide]	3.16 to 31.6	3.16 to 31.6
O=S(=O)(Nc1cc(F)c(Cl)cc1F)c1csc2cc(Cl)ccc12 [Compound I-312, 6-chloro-N-(4-chloro-2,5-difluorophenyl)-1-benzothiophene-3-sulfonamide]	3.16 to 31.6	3.16 to 31.6
O=S(=O)(Nc1cc(F)c(Cl)cc1F)c1c[nH]c2cc3c(cc12)OCO3 [Compound I-271, N-(4-chloro-2,5-difluorophenyl)-5H-[1,3]dioxolo[4,5-f]indole-7-sulfonamide]	< 3.16	< 3.16
COc1nc(NS(=O)(=O)c2c[nH]c3c(Br)c(Cl)ccc23)c(F)cc1Cl [Compound I-321, 7-bromo-6-chloro-N-(5-chloro-3-fluoro-6-methoxypyridin-2-yl)-1H-indole-3-sulfonamide]	< 3.16	< 3.16
N#Cc1ccc(NS(=O)(=O)c2c[nH]c3cc(Cl)c(Br)cc23)c(F)c1 [Compound I-343, 5-bromo-6-chloro-N-(4-cyano-2-fluorophenyl)-1H-indole-3-sulfonamide]	3.16 to 31.6	< 3.16

More lines, now with the values ahead:

IC50 [1] [nM]	Kb [2] [nM]	SMILES
3.16 to 31.6	3.16 to 31.6	O=S(=O)(Nc1ccc(Br)c(Cl)n1)c1c[nH]c2cc(Cl)ccc12 [Compound I-275, N-(5-bromo-6-chloropyridin-2-yl)-6-chloro-1H-indole-3-sulfonamide]
3.16 to 31.6	3.16 to 31.6	COc1cc(Br)cnc1NS(=O)(=O)c1c[nH]c2cc(Cl)ccc12 [Compound I-129, N-(5-bromo-3-methoxypyridin-2-yl)-6-chloro-1H-indole-3-sulfonamide]
< 3.16	3.16 to 31.6	O=S(=O)(Nc1ncc(Cl)cc1F)c1c[nH]c2cc(Cl)ccc12 [Compound I-202, 6-chloro-N-(5-chloro-3-fluoropyridin-2-yl)-1H-indole-3-sulfonamide]
< 3.16	< 3.16	COc1cc(C#N)c(F)cc1NS(=O)(=O)c1c[nH]c2cc(Cl)ccc12 [Compound I-286, 6-chloro-N-(4-cyano-5-fluoro-2-methoxyphenyl)-1H-indole-3-sulfonamide]
3.16 to 31.6	< 3.16	O=S(=O)(Nc1ccc(Br)cc1F)c1c[nH]c2cc(Cl)ccc12 [Compound I-212, N-(4-bromo-2-fluorophenyl)-6-chloro-1H-indole-3-sulfonamide]
< 3.16	< 3.16	COc1cc(NS(=O)(=O)c2c[nH]c3cc(Cl)ccc23)c(F)cc1C#N [Compound I-143, 6-chloro-N-(4-cyano-2-fluoro-5-methoxyphenyl)-1H-indole-3-sulfonamide]
> 31.6	3.16 to 31.6	O=S(=O)(Nc1ccc(Cl)cn1)c1c[nH]c2cc(Cl)ccc12 [Compound I-63, 6-chloro-N-(5-chloropyridin-2-yl)-1H-indole-3-sulfonamide]
3.16 to 31.6	3.16 to 31.6	O=S(=O)(Nc1cccc2c1OC(F)(F)O2)c1c[nH]c2cc(Cl)ccc12 [Compound I-123, 6-chloro-N-(2,2-difluoro-1,3-benzodioxol-4-yl)-1H-indole-3-sulfonamide]
3.16 to 31.6	3.16 to 31.6	O=S(=O)(Nc1ccc(OC(F)(F)F)cc1F)c1c[nH]c2cc(Cl)ccc12 [Compound I-276, 6-chloro-N-[2-fluoro-4-(trifluoromethoxy)phenyl]-1H-indole-3-sulfonamide]
3.16 to 31.6	< 3.16	O=S(=O)(Nc1cc(F)c(F)cc1F)c1c[nH]c2cc(Cl)ccc12 [Compound I-203, 6-chloro-N-(2,4,5-trifluorophenyl)-1H-indole-3-sulfonamide]
3.16 to 31.6	3.16 to 31.6	CS(=O)(=O)c1ccc2c(S(=O)(=O)Nc3ccc(Cl)cc3F)c[nH]c2c1 [Compound I-50, N-(4-chloro-2-fluorophenyl)-6-(methylsulfonyl)-1H-indole-3-sulfonamide]
3.16 to 31.6	3.16 to 31.6	O=S(=O)(Nc1cc(F)cc(F)c1Cl)c1c[nH]c2cc(Cl)ccc12 [Compound I-55, 6-chloro-N-(2-chloro-3,5-difluorophenyl)-1H-indole-3-sulfonamide]
3.16 to 31.6	3.16 to 31.6	O=S(=O)(Nc1ccc(Cl)cc1F)c1c[nH]c2nc(Cl)ccc12 [Compound I-224, 6-chloro-N-(4-chloro-2-fluorophenyl)-1H-pyrrolo[2,3-b]pyridine-3-sulfonamide]
< 3.16	3.16 to 31.6	N#Cc1ccc(NS(=O)(=O)c2c[nH]c3cc(Cl)ccc23)cc1 [Compound I-12, 6-chloro-N-(4-cyanophenyl)-1H-indole-3-sulfonamide]
3.16 to 31.6	3.16 to 31.6	COc1nc(NS(=O)(=O)c2c[nH]c3cc(Cl)ccc23)c(F)cc1F [Compound I-345, 6-chloro-N-(3,5-difluoro-6-methoxypyridin-2-yl)-1H-indole-3-sulfonamide]
